# Measured values taken from US20220175777A1, “Inhibitors of Multidrug Resistance Transporter P-Glycoprotein” (Southern Methodist University, priority 2014, published 2022).
# Tests used:
# [1] = biological target: T1, Cysteineless Mouse MDR3 P-glycoprotein (Mus musculus, UniProt P21447, C1070A/C1121A/C1223A/C133A/C427A/C638A/C669A/C713A/C952A); assay: SL-ATP binding to P-gp by ESR spectroscopy; details: 50 microM inhibitor compound
# T1 construct: made in house; host or cells: Pichia pastoris
# Procedure, shortened: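 Cysteine-free mouse P-gp (30–50 microM) incubated with 50 microM inhibitor, then titrated with spin-labelled ATP analogue SL-ATP. Bound SL-ATP calculated from high-field ESR signal of free SL-ATP versus no-protein control, giving binding stoichiometry and affinity; at least 3 studies on 3–5 P-gp preparations.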
# [2] = system: HFL1; assay: Intrinsic toxicity, MTT survival; type: cell-based; details: Homo sapiens, 48 hours, ± standard error
# Experimental: Percent survival determined by MTT assay calculated relative to cells treated with equal volume DMSO vehicle and represent the mean±SEM from 2-4 separate studies, each study performed in triplicate wells.
# The intrinsic in vitro toxicities of identified compounds were evaluated to determine their potential therapeutic window. This was assessed in a noncancerous cell line (HFL1) and the human prostate cancer cell lines DU145 and the MDR sub-line DU145TxR. The potential toxicity of the compounds were assessed at concentrations that centered around 25 μM.
# [3] = biological target: T1, Cysteineless Mouse MDR3 P-glycoprotein; assay: ATP hydrolysis by purified P-glycoprotein, basal and verapamil-stimulated; type: biochemical
# Procedure, shortened: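 Cysteine-less mouse MDR3 P-gp (all Cys→Ala), expressed in Pichia pastoris and stabilised with phosphatidyl choline, was pre-incubated with compounds at 37 °C. ATP hydrolysis (2 mM ATP final, 20 min) measured via pyruvate kinase/lactate dehydrogenase-coupled NADH oxidation, with and without verapamil stimulation.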
# [4] = system: A2780; assay: Hyper-sensitization of ovarian cancer cells to doxorubicin; type: cell-based; details: not chemotherapy resistant A2780
# Description: Hyper-sensitization of cancers to chemotherapeutics. […] The sensitivity of normal, not chemotherapy resistant A2780 ovarian cancer cell lines to doxorubicin was increased by several orders of magnitude in these assays.
# [5] = biological target: Normal Human MDR1 P-glycoprotein (Homo sapiens, UniProt P08183); assay: ATP hydrolysis by human P-gp assembled into membrane nanodiscs; type: biochemical; details: human MDR1 P-gp in nanodiscs
# Description: To assess whether the observed discrepancies of compounds stimulating basal P-gp ATPase activity but not being transport substrates of the human pump in the cell culture assessments were due to the fact that these biochemical assays used a cysteineless variant of the mouse MDR3 P-glycoprotein, the experiments were repeated using normal human MDR1 P-gp. In order to stabilize the human protein for the activity assays, the protein was assembled into membrane nanodiscs as described herein.
# T1 sequence (P21447 whole entry C133A/C427A/C638A/C669A/C713A/C952A/C1070A/C1121A/C1223A): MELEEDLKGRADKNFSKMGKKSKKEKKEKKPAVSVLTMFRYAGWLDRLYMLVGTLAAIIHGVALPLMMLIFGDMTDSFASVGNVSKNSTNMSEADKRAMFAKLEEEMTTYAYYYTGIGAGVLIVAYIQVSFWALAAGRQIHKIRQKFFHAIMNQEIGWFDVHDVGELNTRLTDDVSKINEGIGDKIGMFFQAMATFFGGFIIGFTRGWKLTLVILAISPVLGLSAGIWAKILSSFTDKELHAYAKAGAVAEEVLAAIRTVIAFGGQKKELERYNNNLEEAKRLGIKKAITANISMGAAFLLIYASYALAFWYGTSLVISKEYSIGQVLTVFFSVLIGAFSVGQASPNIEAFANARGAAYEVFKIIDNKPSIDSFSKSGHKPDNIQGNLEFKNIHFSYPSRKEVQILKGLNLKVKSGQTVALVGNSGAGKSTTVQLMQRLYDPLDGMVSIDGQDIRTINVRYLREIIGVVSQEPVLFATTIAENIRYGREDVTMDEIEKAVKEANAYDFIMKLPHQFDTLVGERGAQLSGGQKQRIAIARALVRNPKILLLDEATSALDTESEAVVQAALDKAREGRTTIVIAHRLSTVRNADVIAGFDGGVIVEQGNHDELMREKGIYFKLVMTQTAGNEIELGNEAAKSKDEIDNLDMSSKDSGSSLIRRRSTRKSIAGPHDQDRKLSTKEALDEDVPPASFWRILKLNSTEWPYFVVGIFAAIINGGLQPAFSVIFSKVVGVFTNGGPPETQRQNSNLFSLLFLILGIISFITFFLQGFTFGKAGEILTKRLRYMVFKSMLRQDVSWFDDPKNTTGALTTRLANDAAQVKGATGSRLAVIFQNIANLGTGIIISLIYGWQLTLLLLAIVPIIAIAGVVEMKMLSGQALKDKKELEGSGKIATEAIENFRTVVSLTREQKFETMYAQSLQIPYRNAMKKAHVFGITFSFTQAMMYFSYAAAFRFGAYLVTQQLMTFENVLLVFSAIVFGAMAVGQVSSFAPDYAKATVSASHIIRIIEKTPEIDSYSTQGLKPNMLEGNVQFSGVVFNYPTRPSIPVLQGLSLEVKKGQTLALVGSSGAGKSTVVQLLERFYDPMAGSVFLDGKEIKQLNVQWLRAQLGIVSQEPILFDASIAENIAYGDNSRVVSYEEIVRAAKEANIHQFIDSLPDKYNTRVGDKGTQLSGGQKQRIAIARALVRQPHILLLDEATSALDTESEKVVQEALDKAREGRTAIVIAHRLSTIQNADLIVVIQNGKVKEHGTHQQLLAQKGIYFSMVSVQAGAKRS
# Normal Human MDR1 P-glycoprotein, sequence (P08183 whole entry): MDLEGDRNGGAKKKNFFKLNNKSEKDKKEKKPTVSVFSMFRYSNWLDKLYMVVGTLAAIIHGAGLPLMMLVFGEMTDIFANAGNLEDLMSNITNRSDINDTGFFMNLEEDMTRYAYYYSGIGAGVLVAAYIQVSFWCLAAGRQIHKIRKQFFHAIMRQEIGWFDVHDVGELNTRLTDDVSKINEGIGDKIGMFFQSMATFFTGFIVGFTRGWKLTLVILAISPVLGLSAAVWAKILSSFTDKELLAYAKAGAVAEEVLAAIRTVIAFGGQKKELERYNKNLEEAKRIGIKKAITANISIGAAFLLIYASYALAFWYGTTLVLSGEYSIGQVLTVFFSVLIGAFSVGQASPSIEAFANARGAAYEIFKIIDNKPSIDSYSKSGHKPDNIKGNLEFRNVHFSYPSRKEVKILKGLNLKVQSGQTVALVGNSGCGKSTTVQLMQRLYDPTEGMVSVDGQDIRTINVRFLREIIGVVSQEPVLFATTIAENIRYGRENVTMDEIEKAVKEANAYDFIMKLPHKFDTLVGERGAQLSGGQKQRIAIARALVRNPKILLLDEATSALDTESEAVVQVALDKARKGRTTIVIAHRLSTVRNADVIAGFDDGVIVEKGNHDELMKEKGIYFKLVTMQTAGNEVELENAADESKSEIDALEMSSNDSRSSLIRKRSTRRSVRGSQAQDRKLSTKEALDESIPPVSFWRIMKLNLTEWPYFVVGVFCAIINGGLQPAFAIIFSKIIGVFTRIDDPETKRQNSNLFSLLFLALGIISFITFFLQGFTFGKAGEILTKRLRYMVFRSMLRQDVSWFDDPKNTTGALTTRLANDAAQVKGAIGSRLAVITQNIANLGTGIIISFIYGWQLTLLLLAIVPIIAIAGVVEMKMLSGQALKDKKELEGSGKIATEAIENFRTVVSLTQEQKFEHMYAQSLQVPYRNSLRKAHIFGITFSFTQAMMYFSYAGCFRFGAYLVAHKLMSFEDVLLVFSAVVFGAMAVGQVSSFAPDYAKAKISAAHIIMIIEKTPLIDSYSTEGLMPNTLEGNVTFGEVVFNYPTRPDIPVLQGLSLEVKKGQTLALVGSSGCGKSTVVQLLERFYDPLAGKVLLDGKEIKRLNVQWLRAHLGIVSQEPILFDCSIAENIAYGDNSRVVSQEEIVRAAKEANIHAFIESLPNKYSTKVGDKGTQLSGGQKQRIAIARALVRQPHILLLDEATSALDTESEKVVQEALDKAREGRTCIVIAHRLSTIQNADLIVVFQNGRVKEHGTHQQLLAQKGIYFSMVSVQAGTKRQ
smiles,measurement,setting,value
"Cc1cc(C)c(-c2cc(NC(=O)CSc3n[nH]c(C4CC4)n3)n(-c3ccccc3)n2)cc1C [SMU-29, 2-[(5-cyclopropyl-1H-1,2,4-triazol-3-yl)sulfanyl]-N-[2-phenyl-5-(2,4,5-trimethylphenyl)pyrazol-3-yl]acetamide]",Effect on SL-ATP binding,[1],decreased the SL-ATP binding affinities
same,IC50,[2],48.2 ± 0.01 µM
same,Effect on stimulated ATPase,[3]; in the presence of verapamil,significantly inhibit
same,Stimulated ATPase (% of DMSO),"[3]; in the presence of verapamil, ± standard deviation",49 ± 2 % of DMSO
same,Basal ATPase (% of DMSO),"[3]; without added transport substrate, ± standard deviation",95 ± 11 % of DMSO
same,Sensitivity to doxorubicin,[4],hyper-sensitized
same,Basal ATPase (% of DMSO),[5]; basal,88 ± 9 % of DMSO
same,Stimulated ATPase (% of DMSO),[5]; stimulated,62 ± 3 % of DMSO
